Laboratory results from patent US9789096B2, “Methods and compositions for selective and targeted cancer therapy” (Board of Regents of the University of Texas System, priority 2013, dated 2017).
pIC50: −log10 of the molar value. Read-outs that look alike come from different tables or passages of the source.

Tests used:
Assay type in all cases: cell-based, human
HBEC30KT = assay: Cell viability (ATP, Cell Titer Glo, 4 days), HBEC30KT; settings: Homo sapiens
Method: (§1) FIG. 6A. […] Cell viability is plotted vs. compound concentration. Compound was added to cells plated at 15% confluence in 96-well plates in RPMI-1640 media supplemented with 5% Fetal Bovine Serum and 2 mM L-Glutamine. After 4 days of incubation, ATP levels were measured using Cell Titer Glo (Promega). Data are presented as the average of 2 replicates ±SEM.
(§2) Selectivity may be measured by the half maximal inhibitory concentration (IC50), which, as used herein, is a measure of the effectiveness of a compound in killing cells. This quantitative measure indicates how much of a particular compound is needed to kill a particular cell population by half (e.g., as indicated by the amount of ATP). […] The IC50 can be determined by constructing a dose-response curve. The lower the IC50, the higher the potency, and the greater the difference between IC50 values for different cell lines (e.g., sensitive lines vs. insensitive lines, and sensitive lines vs. normal lines) the greater the selectivity. […]

H2122 = assay: Cell viability dose-response, H2122; settings: Homo sapiens; for pIC50: NCI-H2122, 12-point dose-response starting at 50 micromolar, 3-fold increments, in duplicate, read-out: toxicity data, H2122; for IC50: NCI-H2122, Tables 3 and 4, read-out: IC50 (uM) vs indicated non-small cell lung cancer cell line H2122; for AC50: NCI-H2122, Table 8, 12-point dose-response starting at 50 micromolar
Procedure, shortened: (§3)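 Viability read as total ATP (Cell Titer Glo) following 4 days' compound exposure, with IC50 derived from dose-response curves. Duplicate 12-point series, top concentration 50 micromolar with 3-fold steps, on cells seeded at 15% confluence in RPMI-1640, 5% FBS, 2 mM L-glutamine.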

H1819 = assay: Cell viability dose-response, H1819; settings: Homo sapiens; for pIC50: NCI-H1819, 12-point dose-response starting at 50 micromolar, 3-fold increments, in duplicate, read-out: toxicity data, H1819; for IC50: NCI-H1819, Tables 3 and 4, read-out: IC50 (uM) vs indicated non-small cell lung cancer cell line H1819; for AC50: NCI-H1819, Table 8, 12-point dose-response starting at 50 micromolar
Procedure, shortened: as §3

H2009 = assay: Cell viability dose-response, H2009; settings: Homo sapiens, NCI-H2009; Tables 3 and 4; read-out: IC50 (uM) vs indicated non-small cell lung cancer cell line H2009
Procedure, shortened: (§4)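 Cells were plated at 15% confluence in RPMI-1640 with 5% FBS and 2 mM L-glutamine, then exposed to compound for 4 days. Viability was read as cellular ATP by CellTiter-Glo luminescence. Values are means of 2 replicates ±SEM, and IC50 comes from the dose-response curve.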

H2073 = assay: Cell viability dose-response, H2073; settings: Homo sapiens; for IC50: NCI-H2073, Tables 3 and 4, read-out: IC50 (uM) vs indicated non-small cell lung cancer cell line H2073; for AC50: NCI-H2073, Table 8, 12-point dose-response starting at 50 micromolar
Method: as §1, §2
With this information, we synthesized and tested a series of small molecules derived in conception from the oxalamide and chromone scaffold including N-acyl ureas, as shown in Tables 6-8. Each compound was tested in a 12-point dose-response study starting at 50 micromolar and decreasing in 3-fold increments to sub-nanomolar concentrations, in duplicate. Additionally, one or more additional cell line was tested in the same way.

HCC44 = assay: Cell viability dose-response, HCC44; settings: Homo sapiens, HCC44, Table 8; 12-point dose-response starting at 50 micromolar
Procedure, shortened: as §4

[1] = 12-point dose-response starting at 50 micromolar, 3-fold increments, in duplicate, read-out: toxicity data, HBEC30KT
[2] = Tables 3 and 4, read-out: HBEC30KT IC50

Row | Structure (SMILES) | pIC50 (HBEC30KT; [1]) | pIC50 (H2122) | pIC50 (H1819) | IC50 (H1819) [µM] | IC50 (H2073) [µM] | IC50 (H2122) [µM] | further results
1 | COc1ccc(CCNC(=O)C(=O)Nc2ccc(Cl)cc2)cc1OC [SW207007-1] | 4.31 | ≤ 4.31 | ≤ 4.31 | – | – | – | –
2 | O=C(O)c1sc2ccccc2c1Cl [SW138238] | – | – | – | 1170 | – | – | pIC50 (HBEC30KT; [2]): 2.31; IC50 (H2009): 179 µM
3 | COc1ccc(CCNC(=O)C(=O)Nc2ccc(OC(F)(F)F)c([N+](=O)[O-])c2)cc1 [SW207010-1] | 4.31 | 6.48 | ≤ 4.31 | – | – | – | –
4 | COc1ccccc1CCNC(=O)C(=O)Nc1ccc(Cl)cc1 [SW207004-1] | 4.31 | ≤ 4.31 | ≤ 4.31 | – | – | – | –
5 | COc1ccc2nc(NC(=O)c3ccc(Br)cc3)sc2c1 [SW000931] | – | – | – | 308 | 2.33 | 2.62 | pIC50 (HBEC30KT; [2]): 3.44
6 | COc1ccc(CCNC(=O)C(=O)Nc2cc(Cl)ccc2OC)cc1 [SW207011-1] | 4.31 | ≤ 4.31 | ≤ 4.31 | – | – | – | –
7 | COc1ccc(CCNC(=O)C(=O)Nc2ccc(C#N)cc2)cc1 [SW207017-1] | 4.31 | 6.15 | ≤ 4.31 | – | – | – | –
8 | COc1ccc(CCNC(=O)C(=O)Nc2ccc(C(F)(F)F)c(Br)c2)cc1 [SW207015-1] | 4.36 | 6.34 | ≤ 4.31 | – | – | – | –
9 | CCOC(=O)c1c(NC(=O)c2ccccc2)sc2c1CCCC2 [SW202858-1] | – | – | – | – | – | 2.69 | pIC50 (HBEC30KT; [2]): 4.31; IC50 (H2009): 38.6 µM
10 | Cc1cccc(CCNC(=O)C(=O)Nc2ccc(Cl)cc2)c1 [SW207006-1] | 4.31 | ≤ 4.31 | ≤ 4.31 | – | – | – | –
11 | O=c1c(Oc2ccccc2F)coc2cc(OCc3cnn(-c4ccccc4)c3)ccc12 [SW043139] | – | – | – | – | – | – | AC50 (HCC44): 50 µM; AC50 (H2073): 50 µM; AC50 (H2122): 0.166 µM; AC50 (H1819): 50 µM
12 | COc1ccc(CCNC(=O)C(=O)Nc2cc(C(F)(F)F)c(Br)c(C(F)(F)F)c2)cc1 [SW207012-1] | 4.74 | 4.93 | ≤ 4.31 | – | – | – | –
13 | COc1ccc(CNC(=O)C(=O)NCc2ccc(OC)cc2)cc1 [SW207019-1] | 4.31 | ≤ 4.31 | ≤ 4.31 | – | – | – | –
14 | COc1ccc(CCNC(=O)C(=O)Nc2ccc(C)c(Cl)c2)cc1 [SW207020-1] | 4.31 | 6.22 | ≤ 4.31 | – | – | – | –
15 | C#CCOc1cccc(-c2coc3cc(OCc4cnn(-c5ccccc5)c4)ccc3c2=O)c1 [SW 209087-1] | – | – | – | – | – | – | AC50 (H2073): 49.5 µM; AC50 (H2122): 0.106 µM; AC50 (H1819): 49.5 µM
16 | O=C(Nc1nc2ccccc2[nH]1)c1ccc([N+](=O)[O-])cc1 [SW209206-1] | – | – | – | ≥ 49.5 | 49.5 | ≥ 49.5 | –
17 | Nc1ccc(C(=O)Nc2nc3ccccc3s2)cc1 [SW209563-1] | – | – | – | 19.7 | 0.184 | 0.027 | –
18 | COc1ccc2nc(NS(=O)(=O)c3ccccc3)sc2c1 [SW202750] | – | – | – | 144 | 97.6 | – | pIC50 (HBEC30KT; [2]): 3.90
19 | COc1ccc2nc(NS(=O)(=O)CC34CCC(CC3=O)C4(C)C)sc2c1 (stereo not shown) [SW202752] | – | – | – | 166 | 110 | – | IC50 (H2009): 4950 µM
20 | COc1ccc2nc(NS(=O)(=O)c3ccc(Br)cc3)sc2c1 [SW166942] | – | – | – | 46.7 | 47.6 | 59.6 | IC50 (H2009): 78.6 µM
21 | Nc1ccc2nc(NC(=O)c3ccc(C(=O)O)cc3)sc2c1 [SW209413-1] | – | – | – | ≥ 49.5 | 49.5 | ≥ 49.5 | –
22 | COc1ccc2nc(NS(=O)(=O)c3ccc(C(F)(F)F)cc3)sc2c1 [SW202746] | – | – | – | 36 | 38 | 46.1 | IC50 (H2009): 42.7 µM
23 | Cc1ccc(/C=C2\COc3cc(OCc4cnn(-c5ccccc5)c4)ccc3C2=O)cc1 [SW209199-1] | – | – | – | – | – | – | AC50 (H2073): 36.1 µM; AC50 (H2122): 43.7 µM; AC50 (H1819): 39.5 µM
24 | O=C(O)c1ccc(C(=O)Nc2nc3ccccc3s2)cc1 [SW209412-1] | – | – | – | ≥ 49.5 | 49.5 | ≥ 49.5 | –
